Reference: ChEMBL document CHEMBL3414511, “Synthesis of a novel class of substituted benzothiophene or benzofuran derivatives as BMP-2 up-regulators and evaluation of the BMP-2-up-regulating effects in vitro and the effects on glucocorticoid-induced osteoporosis in rats” (Eur J Med Chem, 2015)
Active and inactive are the calls of the source. The rule behind the calls is not given here.

Columns and labels:
Rattus norvegicus [1] = experiment: Toxicity in glucocorticoid-induced Wistar rat osteoporosis model assessed as alanine transaminase level at 2.5 mg/kg/day, im administered twice each week for 8 weeks (reference value: 43.73 +/- 36.21 U/L); format: organism-based; set-up: route intramuscular; settings: in vivo, 1344 h
Rattus norvegicus [2] = experiment: Antiosteoporotic activity in glucocorticoid-induced Wistar rat osteoporosis model assessed as appearance of turbulent and sparse rarefection of trabecula at 2.5 mg/kg/day, im administered twice each week for 8 weeks by toluidine blue staining-based light microscopic analysis; format: functional, organism-based
Rattus norvegicus [3] = experiment: Toxicity in glucocorticoid-induced Wistar rat osteoporosis model assessed as white blood cells at 2.5 mg/kg/day, im administered twice each week for 8 weeks (reference value: 6.28 +/- 2.78 x 10^9/L); format: organism-based; set-up: route intramuscular; settings: in vivo, 1344 h
Rattus norvegicus [4] = experiment: Toxicity in glucocorticoid-induced Wistar rat osteoporosis model assessed as triglycerides level at 2.5 mg/kg/day, im administered twice each week for 8 weeks (reference value: 1.13 +/- 0.69 mmol/L); format: organism-based; set-up: route intramuscular; settings: in vivo, 1344 h
Rattus norvegicus [5] = experiment: Toxicity in glucocorticoid-induced Wistar rat osteoporosis model assessed as aspartate transaminase level at 2.5 mg/kg/day, im administered twice each week for 8 weeks (reference value: 177.55 +/- 116.98 U/L); format: organism-based; set-up: route intramuscular; settings: in vivo, 1344 h
Rattus norvegicus [6] = experiment: Antiosteoporotic activity in glucocorticoid-induced Wistar rat osteoporosis model assessed as mineral apposition rate at 2.5 mg/kg/day, im administered twice each week for 8 weeks by fluorescence assay (reference value: 1.06 +/- 0.27 micrometer/day); format: functional; settings: route intramuscular
Rattus norvegicus [7] = experiment: Antiosteoporotic activity in glucocorticoid-induced Wistar rat osteoporosis model assessed as trabecular bone volume at 2.5 mg/kg/day, im administered twice each week for 8 weeks by fluorescence assay (reference value: 33.09 +/- 5.15%); format: functional, Trabecula; settings: route intramuscular
Rattus norvegicus [8] = experiment: Antiosteoporotic activity in glucocorticoid-induced Wistar rat osteoporosis model assessed as trabecula formation surface at 2.5 mg/kg/day, im administered twice each week for 8 weeks by fluorescence assay (reference value: 7.82 +/- 2.46%); format: functional; settings: route intramuscular
Rattus norvegicus [9] = experiment: Toxicity in glucocorticoid-induced Wistar rat osteoporosis model assessed as lymph level at 2.5 mg/kg/day, im administered twice each week for 8 weeks (reference value: 50.35 +/- 12.96%); format: organism-based; set-up: route intramuscular; settings: in vivo, 1344 h
Rattus norvegicus [10] = experiment: Toxicity in glucocorticoid-induced Wistar rat osteoporosis model assessed as neutrophilic granulocytes level at 2.5 mg/kg/day, im administered twice each week for 8 weeks (reference value: 31.95 +/- 8.33%); format: organism-based; set-up: route intramuscular; settings: in vivo, 1344 h
Rattus norvegicus [11] = experiment: Antiosteoporotic activity in glucocorticoid-induced Wistar rat osteoporosis model assessed as trabecula resorption surface at 2.5 mg/kg/day, im administered twice each week for 8 weeks by fluorescence assay (reference value: 7.22 +/- 2.04%); format: functional; settings: route intramuscular
Rattus norvegicus [12] = experiment: Antiosteoporotic activity in glucocorticoid-induced Wistar rat osteoporosis model assessed as densed trabecula at 30 mg/kg/day, po administered six times a week for 3 months by toluidine blue staining-based light microscopic analysis relative to dexamethasone; format: functional, organism-based
Rattus norvegicus [13] = experiment: Toxicity in glucocorticoid-induced Wistar rat osteoporosis model assessed as effect on total bilirubin level at 30 mg/kg/day, po administered six times a week for 3 months; format: organism-based; set-up: route oral; settings: in vivo
Rattus norvegicus [14] = experiment: Toxicity in glucocorticoid-induced Wistar rat osteoporosis model assessed as effect on total protein level at 30 mg/kg/day, po administered six times a week for 3 months; format: organism-based; set-up: route oral; settings: in vivo
Rattus norvegicus [15] = experiment: Toxicity in glucocorticoid-induced Wistar rat osteoporosis model assessed as alanine transaminase level at 30 mg/kg/day, po administered six times a week for 3 months (reference value: 43.73 +/- 36.21 U/L); format: organism-based; set-up: route oral; settings: in vivo
Rattus norvegicus [16] = experiment: Toxicity in glucocorticoid-induced Wistar rat osteoporosis model assessed as lymph level at 30 mg/kg/day, po administered six times a week for 3 months (reference value: 50.35 +/- 12.96%); format: organism-based; set-up: route oral; settings: in vivo
Rattus norvegicus [17] = experiment: Toxicity in glucocorticoid-induced Wistar rat osteoporosis model assessed as aspartate transaminase level at 30 mg/kg/day, po administered six times a week for 3 months (reference value: 177.55 +/- 116.98 U/L); format: organism-based; set-up: route oral; settings: in vivo
Rattus norvegicus [18] = experiment: Toxicity in glucocorticoid-induced Wistar rat osteoporosis model assessed as effect on red blood cell specific volume at 30 mg/kg/day, po administered six times a week for 3 months; format: organism-based; set-up: route oral; settings: in vivo
Rattus norvegicus [19] = experiment: Antiosteoporotic activity in glucocorticoid-induced Wistar rat osteoporosis model assessed as trabecula formation surface at 30 mg/kg/day, po administered six times a week for 3 months by fluorescence assay (reference value: 7.82 +/- 2.46%); format: functional
Rattus norvegicus [20] = experiment: Toxicity in glucocorticoid-induced Wistar rat osteoporosis model assessed as effect on mean corpuscular hemoglobin concentration at 30 mg/kg/day, po administered six times a week for 3 months; format: organism-based; set-up: route oral; settings: in vivo
Rattus norvegicus [21] = experiment: Antiosteoporotic activity in glucocorticoid-induced Wistar rat osteoporosis model assessed as mineral apposition rate at 30 mg/kg/day, po administered six times a week for 3 months by fluorescence assay (reference value: 1.06 +/- 0.27 micrometer/day); format: functional
Rattus norvegicus [22] = experiment: Toxicity in glucocorticoid-induced Wistar rat osteoporosis model assessed as effect on red blood cells at 30 mg/kg/day, po administered six times a week for 3 months; format: organism-based; set-up: route oral; settings: in vivo
Rattus norvegicus [23] = experiment: Toxicity in glucocorticoid-induced Wistar rat osteoporosis model assessed as effect on blood urea nitrogen level at 30 mg/kg/day, po administered six times a week for 3 months; format: organism-based; set-up: route oral; settings: in vivo
Rattus norvegicus [24] = experiment: Toxicity in glucocorticoid-induced Wistar rat osteoporosis model assessed as effect on platelets at 30 mg/kg/day, po administered six times a week for 3 months; format: organism-based; set-up: route oral; settings: in vivo
Rattus norvegicus [25] = experiment: Toxicity in glucocorticoid-induced Wistar rat osteoporosis model assessed as white blood cells at 30 mg/kg/day, po administered six times a week for 3 months (reference value: 6.28 +/- 2.78 x 10^9/L); format: organism-based; set-up: route oral; settings: in vivo
Rattus norvegicus [26] = experiment: Toxicity in glucocorticoid-induced Wistar rat osteoporosis model assessed as effect on hemoglobin at 30 mg/kg/day, po administered six times a week for 3 months; format: organism-based; set-up: route oral; settings: in vivo
Rattus norvegicus [27] = experiment: Toxicity in glucocorticoid-induced Wistar rat osteoporosis model assessed as triglycerides level at 30 mg/kg/day, po administered six times a week for 3 months (reference value: 1.13 +/- 0.69 mmol/L); format: organism-based; set-up: route oral; settings: in vivo
[28] = Upregulation of BMP-2 expression in mouse MC3T3-E1 cells at 4 uM after 24 hrs by luciferase reporter gene assay relative to control; format: functional, cell-based
[29] = Acute toxicity in po dosed Kunming mouse administered for 3 days measured during compound dosing and following 14 days; format: organism-based; settings: in vivo
Mus musculus [30] = experiment: Acute toxicity in Kunming mouse assessed as shiny fur at 700 mg/kg, po administered for 3 days measured during compound dosing and following 14 days; format: organism-based; set-up: dose 700 mg/kg, route oral; settings: in vivo, 336 h
Rattus norvegicus [31] = experiment: Antiosteoporotic activity in glucocorticoid-induced Wistar rat osteoporosis model assessed as trabecular bone volume at 30 mg/kg/day, po administered six times a week for 3 months by fluorescence assay (reference value: 33.09 +/- 5.15%); format: functional, Trabecula
Rattus norvegicus [32] = experiment: Toxicity in glucocorticoid-induced Wistar rat osteoporosis model assessed as effect on mean corpuscular volume at 30 mg/kg/day, po administered six times a week for 3 months; format: organism-based; set-up: route oral; settings: in vivo
Rattus norvegicus [33] = experiment: Toxicity in glucocorticoid-induced Wistar rat osteoporosis model assessed as effect on glucose level at 30 mg/kg/day, po administered six times a week for 3 months; format: organism-based; set-up: route oral; settings: in vivo
Mus musculus [34] = experiment: Acute toxicity in Kunming mouse assessed as behavioral changes at 700 mg/kg, po administered for 3 days measured during compound dosing and following 14 days; format: organism-based; set-up: dose 700 mg/kg, route oral; settings: in vivo, 336 h
Rattus norvegicus [35] = experiment: Antiosteoporotic activity in glucocorticoid-induced Wistar rat osteoporosis model assessed as trabecula resorption surface at 30 mg/kg/day, po administered six times a week for 3 months by fluorescence assay (reference value: 7.22 +/- 2.04%); format: functional
Rattus norvegicus [36] = experiment: Toxicity in glucocorticoid-induced Wistar rat osteoporosis model assessed as effect on creatinine level at 30 mg/kg/day, po administered six times a week for 3 months; format: organism-based; set-up: route oral; settings: in vivo
Rattus norvegicus [37] = experiment: Toxicity in glucocorticoid-induced Wistar rat osteoporosis model assessed as effect on red blood cell distribution width at 30 mg/kg/day, po administered six times a week for 3 months; format: organism-based; set-up: route oral; settings: in vivo
Rattus norvegicus [38] = experiment: Toxicity in glucocorticoid-induced Wistar rat osteoporosis model assessed as neutrophilic granulocytes level at 30 mg/kg/day, po administered six times a week for 3 months (reference value: 31.95 +/- 8.33%); format: organism-based; set-up: route oral; settings: in vivo
Rattus norvegicus [39] = experiment: Toxicity in glucocorticoid-induced Wistar rat osteoporosis model assessed as effect on albumin level at 30 mg/kg/day, po administered six times a week for 3 months; format: organism-based; set-up: route oral; settings: in vivo
Rattus norvegicus [40] = experiment: Antiosteoporotic activity in glucocorticoid-induced Wistar rat osteoporosis model assessed as increase in trabecula number at 30 mg/kg/day, po administered six times a week for 3 months by toluidine blue staining-based light microscopic analysis relative to dexamethasone; format: functional, organism-based
Rattus norvegicus [41] = experiment: Antiosteoporotic activity in glucocorticoid-induced Wistar rat osteoporosis model assessed as increase in trabecula area at 30 mg/kg/day, po administered six times a week for 3 months by toluidine blue staining-based light microscopic analysis relative to dexamethasone; format: functional, organism-based
Rattus norvegicus [42] = experiment: Antiosteoporotic activity in glucocorticoid-induced Wistar rat osteoporosis model assessed as increase in trabecula thickness at 30 mg/kg/day, po administered six times a week for 3 months by toluidine blue staining-based light microscopic analysis relative to dexamethasone; format: functional, organism-based
Rattus norvegicus [43] = experiment: Antiosteoporotic activity in glucocorticoid-induced Wistar rat osteoporosis model assessed as increase in trabecula connectivity at 30 mg/kg/day, po administered six times a week for 3 months by toluidine blue staining-based light microscopic analysis relative to dexamethasone; format: functional, organism-based

SMILES | Activity (Rattus norvegicus [13]) | Activity (Rattus norvegicus [14]) | Activity (Rattus norvegicus [15]) | Activity (Rattus norvegicus [16]) | Activity (Rattus norvegicus [17]) | Activity (Rattus norvegicus [18]) | Activity (Rattus norvegicus [19]) | Activity (Rattus norvegicus [20]) | Activity (Rattus norvegicus [21]) | Activity (Rattus norvegicus [22]) | Activity (Rattus norvegicus [23]) | Activity (Rattus norvegicus [24]) | Activity (Rattus norvegicus [25]) | Activity (Rattus norvegicus [26]) | Activity (Rattus norvegicus [27]) | Activity [28] | LD50 at 336 h [29] | Activity (Mus musculus [30]) | Activity (Rattus norvegicus [31]) | Activity (Rattus norvegicus [32]) | other results
C[C@@H]1C[C@H]2[C@@H]3CCC4=CC(=O)C=C[C@]4(C)[C@@]3(F)[C@@H](O)C[C@]2(C)[C@@]1(O)C(=O)CO [DEXAMETHASONE] | – | – | – | – | – | – | – | – | – | – | – | – | – | – | – | – | – | – | – | – | Activity (Rattus norvegicus [1]): 63.64 U/L; Activity (Rattus norvegicus [2]): inactive; Activity (Rattus norvegicus [3]): 6.58 ×10⁹ /L; Activity (Rattus norvegicus [4]): 1.63 mmol/L; Activity (Rattus norvegicus [5]): 213 U/L; Activity (Rattus norvegicus [6]): 0.76 micrometer/day; Activity (Rattus norvegicus [7]): 18.46%; Activity (Rattus norvegicus [8]): 4.49%; Activity (Rattus norvegicus [9]): 25.77%; Activity (Rattus norvegicus [10]): 53.03%; Activity (Rattus norvegicus [11]): 11.8%
COC(=O)c1ccc2cc(C(C)=O)sc2c1 | Non-toxic | Non-toxic | 31.55 U/L | 34.98% | 119.08 U/L | Non-toxic | 5.95% | Non-toxic | 0.99 micrometer/day | Non-toxic | Non-toxic | Non-toxic | 4.52 ×10⁹ /L | Non-toxic | 0.52 mmol/L | 85.2% | > 700 mg/kg | Non-toxic | 24.72% | Non-toxic | Activity (Rattus norvegicus [12]): Active; Activity (Rattus norvegicus [33]): Non-toxic; Activity (Mus musculus [34]): Non-toxic; Activity (Rattus norvegicus [35]): 9.52%; Activity (Rattus norvegicus [36]): Non-toxic; Activity (Rattus norvegicus [37]): Non-toxic; Activity (Rattus norvegicus [38]): 48.93%; Activity (Rattus norvegicus [39]): Non-toxic
CCOC(=O)c1cc2ccc(C(=O)OC)cc2s1 | Non-toxic | Non-toxic | 26.25 U/L | 46.39% | 124.42 U/L | Non-toxic | 6.69% | Non-toxic | 1.13 micrometer/day | Non-toxic | Non-toxic | Non-toxic | 3.03 ×10⁹ /L | Non-toxic | 0.36 mmol/L | 123% | > 700 mg/kg | Non-toxic | 28.61% | Non-toxic | Activity (Rattus norvegicus [40]): Active; Activity (Rattus norvegicus [41]): Active; Activity (Rattus norvegicus [42]): Active; Activity (Rattus norvegicus [43]): Active; Activity (Rattus norvegicus [33]): Non-toxic; Activity (Mus musculus [34]): Non-toxic; Activity (Rattus norvegicus [35]): 8.92%; Activity (Rattus norvegicus [36]): Non-toxic; Activity (Rattus norvegicus [37]): Non-toxic; Activity (Rattus norvegicus [38]): 40.03%; Activity (Rattus norvegicus [39]): Non-toxic
